From EP2054020B1, “COSMETIC COMPOSITION COMPRISING PURINE AND/OR A PURINE DERIVATIVE AND TAURINE” (Henkel AG & Co. KGaA, priority 2006, dated 2008)

Tests used:
KGF [1] = assay: Growth factor release (ELISA) from reconstructed dermal papillae: KGF; format: cell-based; conditions: 24 h, Taurin 0,5 %, Coffein 0,025 %; for KGF-Freisetzung Mittelwert: quadruplicates, compared with untreated Kontrolle = 100, spread in brackets; for Steigerung der KGF Ausschüttung: increase over untreated control
Text: (§1) Die beiden Wachstumsfaktoren Hepatocyte Growth Factor (HGF) und Keratinocyte Growth Factor (KGF) sind wichtige Regulatoren des Haarzyklus. Bei potentiell wachstumsfördemden und den vorzeitigen Haarverlust vermindernden Substanzen kann von einer Steigerung eines der ausgeschütteten Faktoren ausgegangen werden. Die Ausschüttung von HGF sowie KGF kann mit Hilfe von kommerziell erhältlichen ELISA-Kits quantifiziert werden.
(§2) Die Ergebnisse finden sich in Tabelle 5 wieder. Tabelle 5: KGF- und HGF-Freisetzung in [%] nach Behandlung rekonstruierter dermaler Papillen im Vergleich zu unbehandelten Kontrollen.

IGFBP3 = assay: Differential gene expression by qRT-PCR in dermal papilla cells: IGFBP3; format: cell-based; conditions: 24 h, Taurin 0,5 %, Coffein 0,025 %; for IGFBP3 Mittelwert: untreated Kontrolle = 1, spread in brackets, 4 biological replicates, >=2 or <=0,5 signifikant, >=1,5 or <=0,6 tendenziell; for Expression von IGF-BP3: result in words
Text: (§3) Tabelle 2: Untersuchte Lösungen
Diesen Eigenschaften gegenüber steht die Expression von IGFBP-3. Dieses Genprodukt führt neben Anderen zu einer.Verschiebung des Zyklus von der Wachstums- zur Regressionsphase. Nach Applikation von Substanzen, die Effekte am biologisch aktiven Teil des Haares hervorrufen, könnte die Bestimmung der Veränderungen der Expression dieses Gens Aussagen über Haarwuchsstimulantien oder -inhibitoren liefern.
(§4) Die differentielle Genexpression wurde mittels quantitatitiver Reverse-Transkription Polymerase Kettenreaktion (qRT-PCR) bestimmt. Nach Anzucht der dermalen Papillenzellen wurden jeweils 4 biologische Replikate für 24 h mit den Lösungen gemäß Tabelle 2 inkubiert. Zur Durchführung der qRT-PCR wird zunächst mit Hilfe des RNeasy Mini Kits der Fa. Qiagen die RNA aus den dermalen Papillenzellen isoliert und mittels reverser Transkription in cDNA umgeschrieben. Bei der anschließenden PCR Reaktion, die mit Hilfe genspezifischer Primer für die jeweiligen haarrelevanten Gene durchgeführt wird und die der Amplifikation der gesuchten Genabschnitte dient, wird die Bildung der PCR-Produkte online über ein Fluoreszenzsignal detektiert. Das Fluoreszenzsignal ist dabei proportional zur Menge des gebildeten PCR-Produktes. Je stärker die Expression eines bestimmten Gens ist, desto größer ist die Menge an gebildetem PCR-Produkt und umso höher ist das Fluoreszenzsignal.
(§5) Zur Quantifizierung der Genexpression wird die unbehandelte Kontrolle gleich 1 gesetzt und die Expression der zu bestimmenden Gene darauf bezogen (x-fache Expression). Dabei werden Werte, die größer/gleich der 2-fachen Expression oder kleiner/gleich der 0,5-fachen Expression der unbehandelten Kontrolle sind als signifikant differentiell exprimiert eingestuft. Werte die größer/gleich der 1,5-fachen Expression oder kleiner/gleich der 0,6-fachen Expression der unbehandelten Kontrolle sind, werden als tendenziell differentiell exprimiert eingestuft. Die Ergebnisse sind in Tabelle 4 zusammengefasst.

HGF [2] = assay: Differential gene expression by qRT-PCR in dermal papilla cells: HGF; format: cell-based; conditions: 24 h, Taurin 0,5 %, Coffein 0,025 %; for HGF Mittelwert: untreated Kontrolle = 1, spread in brackets, 4 biological replicates, >=2 or <=0,5 signifikant, >=1,5 or <=0,6 tendenziell; for Expression von HGF: result in words
Text: as §3
(§6) Hepatocyte Growth Factor (HGF) und Keratinocyte Growth Factor (KGF) sind wichtige Wachstumsfaktoren, die von den dermalen Papillenzellen synthetisiert werden. Im Speziellen stimuliert HGF das Follikelwachstum und KGF die Keratinozytenproliferation. Entsprechend werden HGF und KGF in der Wachstumsphase vermehrt exprimiert.
as §4, §5

KGF [3] = assay: Differential gene expression by qRT-PCR in dermal papilla cells: KGF; format: cell-based; conditions: 24 h, Taurin 0,5 %, Coffein 0,025 %; for KGF Mittelwert: untreated Kontrolle = 1, spread in brackets, 4 biological replicates, >=2 or <=0,5 signifikant, >=1,5 or <=0,6 tendenziell; for Expression von KGF: result in words
Text: as §3, §6, §4, §5

HGF [4] = assay: Growth factor release (ELISA) from reconstructed dermal papillae: HGF; format: cell-based; conditions: 24 h, Taurin 0,5 %, Coffein 0,025 %; for HGF-Freisetzung Mittelwert: quadruplicates, compared with untreated Kontrolle = 100, spread in brackets; for Steigerung der HGF-Ausschüttung: increase over untreated control
Text: as §1, §2

[5] = test system: kultivierte dermale Papillenzellen
Text: Die Bestimmung der Freisetzung von Laktat-Dehydrogenase (LDH) kultivierter Zellen gibt Auskunft über die Schädigung der Zellmembran. In unbeschädigten Zellen ist LDH ausschließlich im Zytoplasma lokalisiert. Erst durch Schädigung der Zellmembran kann LDH in das umgebende Kulturmedium diffundieren. Mit Hilfe eines Substrat-gekoppelten kolorimetrischen Testsystems kann die Menge an freigesetztem LDH bestimmt werden.
Zur Bestimmung möglicher zellschädigender Nebeneffekte wurden kultivierte dermale Papillenzellen mit den in Tabelle 2 aufgeführten Lösungen kultiviert und nach Behandlung die Menge an LDH im Medium analysiert. Es wurde die Zeit bestimmt, die benötigt wird, um eine definierte Menge an Farbstoff umzusetzen. […] Hierbei gilt, dass Werte < 80 % auf mögliche zellschädigende Reaktionen hindeuten.

**Q.** With `Cn1c(=O)c2c(ncn2C)n(C)c1=O` [Coffein, reference compound] as the compound, how does the “KGF-Freisetzung Mittelwert” value (KGF [1]) read?
**A.** 119 (9,7) %

**Q.** What about the “Steigerung der KGF Ausschüttung” value (KGF [1]) of the same compound?
**A.** 10%

**Q.** What about the “IGFBP3 Mittelwert” value (IGFBP3) of the same compound?
**A.** 0,44 (0,07) x-fache Expression

**Q.** And the “Expression von IGF-BP3” value (IGFBP3)?
**A.** signifikante Deaktivierung

**Q.** And the “HGF Mittelwert” value (HGF [2])?
**A.** 1,62 (0,46) x-fache Expression

**Q.** What about the “Expression von HGF” value (HGF [2]) of the same compound?
**A.** tendenzielle Aktivierung

**Q.** And the “KGF Mittelwert” value (KGF [3])?
**A.** 1,44 (0,13) x-fache Expression

**Q.** What about the “Expression von KGF” value (KGF [3]) of the same compound?
**A.** tendenzielle Aktivierung

**Q.** What about the “HGF-Freisetzung Mittelwert” value (HGF [4]) of the same compound?
**A.** 170 (35,8) %

**Q.** What about the “Steigerung der HGF-Ausschüttung” value (HGF [4]) of the same compound?
**A.** 70%

**Q.** `NCCS(=O)(=O)O` [Taurin, 2-Aminoethansulfonsäure] was tested. Which “KGF-Freisetzung Mittelwert” value (KGF [1]) did it give?
**A.** 110(11,5) %

**Q.** And the “Steigerung der KGF Ausschüttung” value (KGF [1])?
**A.** 19%

**Q.** And the “IGFBP3 Mittelwert” value (IGFBP3)?
**A.** 1,41 (0,18) x-fache Expression

**Q.** What about the “Expression von IGF-BP3” value (IGFBP3) of the same compound?
**A.** keinen signifikanten Änderungen

**Q.** And the “HGF Mittelwert” value (HGF [2])?
**A.** 1,03 (0,30) x-fache Expression

**Q.** And the “Expression von HGF” value (HGF [2])?
**A.** keinen signifikanten Änderungen

**Q.** And the “KGF Mittelwert” value (KGF [3])?
**A.** 1,08 (0,12) x-fache Expression

**Q.** What about the “Expression von KGF” value (KGF [3]) of the same compound?
**A.** keinen signifikanten Änderungen

**Q.** And the “Freisetzung von LDH Mittelwert (%)” value [5]?
**A.** 134,1%

**Q.** And the “zellschädigende Effekte” value [5]?
**A.** weder nach Behandlung mit Taurin oder Coffein allein, noch mit einem Gemisch beider Verbindungen zellschädigende Effekte nachgewiesen werden können

**Q.** And the “HGF-Freisetzung Mittelwert” value (HGF [4])?
**A.** 152 (29,9) %

**Q.** What about the “Steigerung der HGF-Ausschüttung” value (HGF [4]) of the same compound?
**A.** 52%
